This test relates to Escherichia coli. As to the kind of experiment: suspension quantitative bactericidal test (2.1.1.7.4, Disinfection Technical Specifications 2002 edition), 30 min. The settings on record: for antibacterial performance (in words): Table 3, 0.0015625% and 0.00078125% aqueous solutions. Format: cell-based. Here is the method: Referring to 2.1.1.7.4 suspension quantitative bactericidal test (2002 edition of Disinfection Technical Specifications), neutralizer was prepared: 2.1% lecithin+2.0% glucose+0.5% sodium thiosulfate+1.5% tween-80+0.5% peptone+1.2% sodium sulfite aqueous solution. C6-S—Cl (Example 1), C8-S—Cl (Example 3) and C10-S—Cl (Example 5) were diluted into 0.0015625% and 0.00078125% aqueous solutions, and the bactericidal experiment was carried out for 30 min to Escherichia coli.
Referring to 2.1.1.7.4 suspension quantitative bactericidal test (2002 edition of Disinfection Technical Specifications), neutralizer was prepared: 2.1% lecithin+2.0% glucose+0.5% sodium thiosulfate+1.5% tween-80+0.5% peptone+1.2% sodium sulfite aqueous solution. C8-S—Cl (Example 3), C8-S—Br (Example 4) and C8-S—NO3 (Example 7) were diluted into 0.0015625% and 0.00078125% aqueous solutions, and the bactericidal experiment was carried out for 30 min to Escherichia coli.
Referring to 2.1.1.7.4 suspension quantitative bactericidal test (2002 edition of Disinfection Technical Specifications), neutralizer was prepared: 2.1% lecithin+2.0% glucose+0.5% sodium thiosulfate+1.5% tween-80+0.5% peptone+1.2% sodium sulfite aqueous solution. C8-S—Cl (Example 3), C8-S—NO3—Ag^+ (Example 3), C8-S—CI—Cu^2+ (ratio 1), C8-S—CI—Mn^2+ (ratio 2), C8-S—CI—Fe^3+ (ratio 3), AgNO3, CuCl2, MnCl2, and FeCl3 were dissolved to 0.0015625% and 0.00078125% aqueous solution.
Referring to 2.1.1.7.4 suspension quantitative bactericidal test (2002 edition of Disinfection Technical Specifications), neutralizer was prepared: 2.1% lecithin+2.0% glucose+0.5% sodium thiosulfate+1.5% tween-80+0.5% peptone+1.2% sodium sulfite aqueous solution. C8-S—Cl (Example 3), C8-S—NO3 (Example 7) and C8-S—NO3—Ag^+ (Example 3) were configured into 0.0015625%, 0.00078125% and 0.000390625% aqueous solutions.
Referring to 2.1.1.7.4 suspension quantitative bactericidal test (2002 edition of Disinfection Technical Specifications), neutralizer was prepared: 2.1% lecithin+2.0% glucose+0.5% sodium thiosulfate+1.5% tween-80+0.5% peptone+1.2% sodium sulfite aqueous solution. The bactericidal experiment was carried out on E. coli for 30 min by preparing the silver-ion complex Gemini quaternary ammonium salt (Example 3), C10 chlorinated sulfur-free Gemini quaternary ammonium salt (Comparative example 4) and uncomplex silver-ion Gemini quaternary ammonium salt (Comparative example 4) into 0.0015625%, 0.00078125% and 0.000390625% aqueous solutions.

Where [1] appears, read: Table 5, 0.000390625% aqueous solution, E. coli.
[2] abbreviates: Table 5, 0.00078125% aqueous solution, E. coli.
Where [3] appears, read: Table 5, 0.0015625% aqueous solution, E. coli.
Where [4] appears, read: Table 3, 0.00078125% aqueous solution, Escherichia coli.
[5] abbreviates: Table 3, 0.0015625% aqueous solution, Escherichia coli.
Where [6] appears, read: Table 1, 0.00078125% aqueous solution, Escherichia coli.
Setting [7] is: Table 1, 0.0015625% aqueous solution, Escherichia coli.
Setting [8] is: Table 2, 0.00078125% aqueous solution, Escherichia coli.
Setting [9] is: Table 2, 0.0015625% aqueous solution, Escherichia coli.
Where [10] appears, read: Table 4, 0.000390625% aqueous solution, Escherichia coli.
Where [11] appears, read: Table 4, 0.00078125% aqueous solution, Escherichia coli.
Where [12] appears, read: Table 4, 0.0015625% aqueous solution, Escherichia coli.

In the case of `CCCCCCCCCC(=O)OCC[N+](C)(C)CCC[N+](C)(C)CCOC(=O)CCCCCCCCC` [Example C10-Cl, reference compound], the “Treated (cfu/mL)” value under setting [1] is listed as 4.3 × 10^5 cfu/mL, the “Treated (cfu/mL)” value under setting [2] is recorded as 3.5 × 10^3 cfu/mL and the “Treated (cfu/mL)” value under setting [3] was 1.2 × 10^2 cfu/mL. Moreover, the sterilizing rate by setting is: under setting [1], 99.978%; under setting [2], >99.99%; under setting [3], >99.999%.
Consider `[Cl][Fe]([Cl])[Cl]` [FeCl3, reference compound], for which the “Treated (cfu/mL)” value is 6.2 × 10^8 cfu/mL under setting [4] and 4.3 × 10^7 cfu/mL under setting [5]. For the same molecule, the sterilizing rate entry under setting [4] is “No bactericidal effect” and the sterilizing rate result under setting [5] is listed as “No bactericidal effect”. The “antibacterial performance (in words)” value (Escherichia coli) was “did not show any antibacterial performance”.
Take `CCCCCCSCCC(=O)OCC[N+](C)(C)CCC[N+](C)(C)CCOC(=O)CCSCCCCCC` [Example C6-S-Cl]: under setting [6], the “Treated (cfu/mL)” value is reported as 4.0 × 10^5 cfu/mL and the sterilizing rate is 98.621%. Further, under setting [7], the “Treated (cfu/mL)” value is recorded as 3.2 × 10^3 cfu/mL and the sterilizing rate was 99.989%.
Regarding `CCCCCCCCSCCC(=O)OCC[N+](C)(C)CCC[N+](C)(C)CCOC(=O)CCSCCCCCCCC` [Example C8-S-NO3], the “Treated (cfu/mL)” value is, setting by setting: under setting [8], 1.4 × 10^2 cfu/mL; under setting [9], 13 cfu/mL; under setting [10], 4.5 × 10^4 cfu/mL; under setting [11], 2.5 × 10^2 cfu/mL; under setting [12], 13 cfu/mL. For the same molecule, the sterilizing rate by setting is: under setting [8], >99.999%; under setting [9], >99.999%; under setting [10], >99.99%; under setting [11], >99.99%; under setting [12], >99.999%. The bactericidal rate entry (Table 2, 0.0015625% and 0.00078125% aqueous solutions, Escherichia coli) is given as “above 99.999%”.
In the case of `CCCCCCCCSCCC(=O)OCC[N+](C)(C)CCC[N+](C)(C)CCOC(=O)CCSCCCCCCCC` [Example C8-S-Cl], the “Treated (cfu/mL)” value is, setting by setting: under setting [6], 1.9 × 10^2 cfu/mL; under setting [7], 90 cfu/mL; under setting [8], 1.7 × 10^3 cfu/mL; under setting [9], 79 cfu/mL; under setting [4], 1.8 × 10^3 cfu/mL; under setting [5], 86 cfu/mL. Also, the “Treated (cfu/mL)” value by setting is: under setting [1], 2.6 × 10^5 cfu/mL; under setting [2], 1.8 × 10^3 cfu/mL; under setting [3], 82 cfu/mL. Moreover, the sterilizing rate by setting is: under setting [6], >99.99%; under setting [7], >99.999%; under setting [8], >99.99%; under setting [9], >99.999%; under setting [4], >99.99%; under setting [5], >99.999%. The sterilizing rate under setting [1] is 99.985%, the sterilizing rate under setting [2] is reported as >99.99% and the sterilizing rate under setting [3] is on record as >99.999%. In addition, the bactericidal rate entry (Table 1, 0.0015625% and 0.00078125% aqueous solutions, Escherichia coli) is recorded as “above 99.99%”.
With `[Cl][Mn][Cl]` [MnCl2, reference compound], under setting [4], the “Treated (cfu/mL)” value is 8.9 × 10^7 cfu/mL and the sterilizing rate result is “No bactericidal effect”. The “antibacterial performance (in words)” value (Escherichia coli) is “did not show any antibacterial performance”. Further, under setting [5], the “Treated (cfu/mL)” value was 2.3 × 10^7 cfu/mL and the sterilizing rate entry is recorded as “No bactericidal effect”.
On to `O=[N+]([O-])[O-].[Ag+]` [AgNO3, reference compound], for which the “Treated (cfu/mL)” value is 1.3 × 10^8 cfu/mL under setting [4] and 2.2 × 10^7 cfu/mL under setting [5]. Besides, the sterilizing rate result runs as follows: under setting [4], “No bactericidal effect”; under setting [5], “No bactericidal effect”. The “antibacterial performance (in words)” value (Escherichia coli) is “did not show any antibacterial performance”.
In the case of `CCCCCCCCSCCC(=O)OCC[N+](C)(C)CCC[N+](C)(C)CCOC(=O)CCSCCCCCCCC` [Example C8-S-Br], under setting [8], the “Treated (cfu/mL)” value is listed as 1.1 × 10^3 cfu/mL and the sterilizing rate is listed as >99.99%. Besides, under setting [9], the “Treated (cfu/mL)” value is given as 75 cfu/mL and the sterilizing rate is listed as >99.999%.
As for `[Cl][Cu][Cl]` [CuCl2, reference compound], under setting [4], the “Treated (cfu/mL)” value is recorded as 4.9 × 10^8 cfu/mL and the sterilizing rate entry is reported as “No bactericidal effect”. Also, where the note is “Escherichia coli”, the “antibacterial performance (in words)” value was “did not show any antibacterial performance”. Also, under setting [5], the “Treated (cfu/mL)” value was 3.2 × 10^7 cfu/mL and the sterilizing rate result is “No bactericidal effect”.
Regarding `CCCCCCCCCCSCCC(=O)OCC[N+](C)(C)CCC[N+](C)(C)CCOC(=O)CCSCCCCCCCCCC` [Example C10-S-Cl], under setting [6], the “Treated (cfu/mL)” value is 4.6 × 10^4 cfu/mL and the sterilizing rate is given as 99.841%. In addition, under setting [7], the “Treated (cfu/mL)” value is 5.8 × 10^2 cfu/mL and the sterilizing rate is on record as >99.99%.

These data come from US20260209253A1, “SILVER ION COMPLEX GEMINI QUATERNARY AMMONIUM SALT: PREPARATION METHOD AND APPLICATIONS” (ANHUI KIWI BIOTECH CO., LTD, priority 2023, published 2026).
